Where “and” joins values, the source holds several entries; their conditions need not be identical. Equal values may be shown once.
Legend:
S1 domain of SARS-CoV-2 = S1 domain of SARS-CoV-2 (Severe acute respiratory syndrome coronavirus 2, UniProt P0DTC2); test: FD-based AFM binding probability of S1-functionalized tip on 9-AcSA, SA or streptavidin coated surfaces
SARS-CoV-2 = test: AFM inhibition assay: binding probability between SARS-CoV-2 virions and 9-AcSA coated surfaces before and after incubation with oligomers; conditions: for relative BP, Mean: mean of 3 tips, 0 uM = 1; for relative BP, single tip: normalized to 0 uM = 1
S1 subunit = S1 subunit (Severe acute respiratory syndrome coronavirus 2, UniProt P0DTC2); test: Dynamic force spectroscopy and kinetic on-rate analysis of the S1 – 9-AcSA bond; format: binding, SARS-CoV-2

Compound	binding probability in competition assay with free 9-AcSA (S1 domain of SARS-CoV-2; S1 tip on 9-AcSA surface, free 1 mM 9-AcSA)	difference in binding probability between acetylated and non-acetylated SA (S1 domain of SARS-CoV-2; S1 tip, 9-AcSA versus SA coated surface)	IC50 (SARS-CoV-2) [µM]	relative BP, Mean (SARS-CoV-2; 1 uM)	relative BP, single tip (SARS-CoV-2; 1 uM)	relative BP, Mean (SARS-CoV-2; 10 uM)	relative BP, single tip (SARS-CoV-2; 10 uM)	relative BP, Mean (SARS-CoV-2; 100 uM)	relative BP, single tip (SARS-CoV-2; 100 uM)	reduction in the binding probability (SARS-CoV-2; over the explored range 1, 10, 100 µM)	koff (S1 subunit; Bell-Evans fit, single S1 – 9-AcSA bond) [s⁻¹]	KD (S1 subunit; ratio between koff and kon)	Kd (S1 subunit; ratio between koff and kon) [µM]	relative BP, single tip (SARS-CoV-2; 1 uM, listed as Pillar[5]arene NonAc)	relative BP, single tip (SARS-CoV-2; 10 uM, listed as Pillar[5]arene NonAc)	relative BP, single tip (SARS-CoV-2; 100 uM, listed as Pillar[5]arene NonAc)
9-O-acetylated sialic acid [9-AcSA]	significantly lower BP	~ 3 fold	> 100	0.8501	0.7609 and 0.6994 and 1.09	0.807	0.7029 and 0.638 and 1.08	0.638	0.587 and 0.4969 and 0.83	20-30%	0.24 ± 0.2	low micromolar range	5.7 ± 5			
CC(=O)N[C@H]1[C@H]([C@H](O)[C@H](O)CO)O[C@@](OCc2cn(CCOc3cc4c(OCCn5cc(CO[C@]6(C(=O)O)C[C@H](O)[C@@H](NC(C)=O)[C@H]([C@H](O)[C@H](O)CO)O6)nn5)cc3Cc3cc(OCCn5cc(CO[C@]6(C(=O)O)C[C@H](O)[C@@H](NC(C)=O)[C@H]([C@H](O)[C@H](O)CO)O6)nn5)c(cc3OCCn3cc(CO[C@]5(C(=O)O)C[C@H](O)[C@@H](NC(C)=O)[C@H]([C@H](O)[C@H](O)CO)O5)nn3)Cc3cc(OCCn5cc(CO[C@]6(C(=O)O)C[C@H](O)[C@@H](NC(C)=O)[C@H]([C@H](O)[C@H](O)CO)O6)nn5)c(cc3OCCn3cc(CO[C@]5(C(=O)O)C[C@H](O)[C@@H](NC(C)=O)[C@H]([C@H](O)[C@H](O)CO)O5)nn3)Cc3cc(OCCn5cc(CO[C@]6(C(=O)O)C[C@H](O)[C@@H](NC(C)=O)[C@H]([C@H](O)[C@H](O)CO)O6)nn5)c(cc3OCCn3cc(CO[C@]5(C(=O)O)C[C@H](O)[C@@H](NC(C)=O)[C@H]([C@H](O)[C@H](O)CO)O5)nn3)Cc3cc(OCCn5cc(CO[C@]6(C(=O)O)C[C@H](O)[C@@H](NC(C)=O)[C@H]([C@H](O)[C@H](O)CO)O6)nn5)c(cc3OCCn3cc(CO[C@]5(C(=O)O)C[C@H](O)[C@@H](NC(C)=O)[C@H]([C@H](O)[C@H](O)CO)O5)nn3)C4)nn2)(C(=O)O)C[C@@H]1O [compound 4]				0.7825		0.836		0.9261						0.6071 and 0.8687 and 0.8718	0.7738 and 0.9394 and 0.7949	0.9286 and 0.9394 and 0.9103
